Data reported in US7521590B2, “Phospholipase C β1 (PLCβ1) knockout mice as a model system for testing schizophrenia drugs” (Korea Institute of Science and Technology, priority 2006, dated 2009).

What was measured:
[1] = system: PLCβ1−/− mice; assay: Prepulse inhibition (PPI) of acoustic startle response in PLCβ1−/− mice; format: in vivo, mouse; conditions: 0.2 mg/kg i.p. 45 minutes before the test, prepulse 74, 82, 90 dB, p<0.05 vs vehicle
Procedure: (§1) PPI tests were carried out with 26 responder mice 13˜15 weeks old by using a single acoustic startle chamber (Coulbourn Instruments, USA), one mouse at a time. The startle reflex was triggered by a pulse stimulus in the form of a 40 msec, 120 dB burst of white noise (SS). Inhibition of the SS-elicited startle response was achieved using a 20 msec-prepulse stimulus of various intensities (74, 82, and 90 dB white noise) that preceded SS by 100 msec.
(§2) The test was composed of a series of 7 blocks, each of which was a “semi-random” mixture of 8 different trial types (no stimulus, SS only, three PP only, three PP plus SS), separated by 10 to 15-second intertrial intervals. The percent prepulse inhibition (%PPI) was calculated as [1−(response to PP-SS coupling/response to SS only)]×100.
(§3) Haloperidol (0.2 mg/kg body weight) was intraperitonealy (i.p.) administered 45 minutes before the test, using 0.5% dimethylsulfoxide (DMSO) in saline (0.9% NaCl) as the vehicle. Haloperidol (Tocris Cookson, UK) stock solution was prepared in DMSO and stored at […] for less than a month.

[2] = system: wild-type mice; assay: Prepulse inhibition (PPI) of acoustic startle response in wild-type mice; format: in vivo, mouse; conditions: 0.2 mg/kg i.p. 45 minutes before the test, vs vehicle
Procedure: as §1, §2, §3

For O=C(CCCN1CCC(O)(c2ccc(Cl)cc2)CC1)c1ccc(F)cc1 [haloperidol, Haloperidol], the “effect on the PPI deficit (%PPI)” value [1] was “completely reversed” and the “effect on the PPI (%PPI)” value [2] was “not effective”.
